In US20220064141A1, “BENZOPYRIDONE HETEROCYCLIC COMPOUND AND USE THEREOF” (BrightGene Bio-Medical Technology Co., Ltd., priority 2019, published 2022):

What was measured:
[1] = Pharmacokinetic experiment in male CD-1 mice (IV and PO); type: in vivo
Protocol: Effect Example 3: Pharmacokinetic Experiment
(1) Compound I-2-2 of the present disclosure prepared in the above Example was used to be formulated into a clear solution (0.3 mg/mL) (2% DMSO+30% PEG 300+2% Tween 80+66% H2O) as a drug for oral administration; and was used to be formulated into a clear solution (0.2 mg/mL) (2% DMSO+30% PEG 300+2% Tween 80+66% H2O) as a drug for intravenous administration.
(2) Male CD-1 mice (three mice in each group, weighing 27 g to 28 g) were provided by Shanghai Slack Laboratory Animal Co., Ltd. The test mice were given an environmental accommodation period of 2 to 4 days before the experiment. The mice were fasted for 8 to 12 hours before administration, and they were provided access to water (2 hours after administration) and food (4 hours after administration).
(3) 12 hours after the mice were fasted but had free access to water, blank plasma at time 0 was taken.
(4) The mice in step 1) were taken; and they were orally (PO) administered 3 mg/kg of the compound to be tested, or intravenously (IV) administered 1 mg/kg of the compound to be tested.
(5) At 5 min, 15 min, 30 min, 1 h, 2 h, 4 h, 8 h, 10 h, and 24 h after oral administration, blood was successively taken from the fundus oculi venous plexus and placed in EP tubes with heparin. After centrifugation at 8000 rpm/min for 5 min, the plasma in upper layer was collected and frozen at −20° C., waiting for LC-MS/MS analysis.
(6) WinNonlin software was used to calculate the pharmacokinetic parameters based on the blood concentration-time data obtained in […]).

[2] = test system: A549 human non-small cell lung cancer cells with high expression of KRAS G12S; assay: Cell Titer-Glo cell viability, A549 cells (72 h); type: cell-based
Text: Effect Example 2: Pharmacodynamic Assay 2 (Determination of the efficacy of the compounds of the present disclosure on HCT116 human colon cancer cells with high expression of KRAS G13D and A549 human non-small cell lung cancer cells with high expression of KRAS G12S)
The following method was used to determine the effects of the compounds of the present disclosure on tumor cell proliferation.
For KRAS G13D subtype, HCT116 human colon cancer cell was used. For KRAS G12S subtype, A549 human non-small cell lung cancer cell was used. The efficacy of the compounds in inhibiting cancer cell viability was determined. HCT116 cells or A549 cells were cultured in a DMEM medium containing 10% fetal bovine serum, 100 U penicillin and […] streptomycin. The cells were cultured in an incubator with 5% CO2 at 37° C. Cancer cell viability was evaluated by determining the content of ATP with Cell Titer-Glo® kit (Luminescent Cell Viability Assay kit, please refer to the manufacturer's instructions for use) and evaluating the inhibition of cell growth.
The experimental method was proceeded in accordance with the steps in the instructions for the kit, and was described briefly as follows. The test compounds were first dissolved in DMSO to prepare stock solutions, and then the stock solutions were subjected to gradient dilution with the culture media of the corresponding cells, thereby preparing test samples. The final concentrations of the compounds were in the range of 30 μM to 0.01 nM. Tumor cells in logarithmic growth phase were seeded into a 96-well cell culture plate at an appropriate density. After the cell culture plate was left overnight in an incubator with 5% CO2 at 37° C., the test compound samples were added thereto and then the cells were further cultured for 72 hours. After the incubation was complete, an appropriate volume of Cell Titer-Glo® reagent was added into each well, and the cells were incubated at 37° C. for 1 to 4 hours. Then, the […] was read on a microplate reader. The percentage inhibition rates of the compounds at each concentration point were calculated by comparing the absorbance values of the sample wells with that of the control group (0.3% DMSO), and then non-linear regression analysis of the concentration of the compound vs inhibition rate was performed by using GraphPad Prism 5 software, thereby obtaining IC50 values indicating the inhibitory effects of the compounds on cell proliferation.

[3] = Safety by body weight change and animal deaths in the MIAPaCa-2 xenograft study; type: in vivo; details: for Weight at the Initiation of Administration: baseline
Protocol: Experimental operation: BALB/c nude mice, female, 6- to 8-weeks old, weighing about 17.6 g to 21.1 g. Each mouse was subcutaneously inoculated with 5×10^6 MIAPaCa-2 cells (with Matrigel; the volume ratio was 1:1) in the right flank. The administration was initiated when the average tumor volume reached about 100 cubic millimeters. The test compounds were orally administered daily by intragastric injection (6 mice in each group) for a total of 16 or 23 days. Tumor volumes were measured three times a week. The volume was measured in cubic millimeters and calculated by the following formula: tumor volume (mm^3)=½×(a×b^2) (where a represented the long diameter and b represented the short diameter). The anti-tumor efficacy of the compound was evaluated by TGI (%).The calculation formula was as follows: TGI %=(1−T/C)×100% (T and C were the relative tumor volumes (RTV) of a mouse in the treatment group and a mouse in the control group at a specific time point), respectively. Safety was evaluated according to the changes of the body weight of the animals and animal deaths.

[4] = 30 mg/kg (Day 0 to Day 9) + 15 mg/kg (Day 10 to Day 16)
[5] = 100 mg/kg (Day 0 to Day 9) + 50 mg/kg (Day 10 to Day 16) + 100 mg (Day 17 to Day 23)

For `C=CC(=O)N1CCN(c2c(C#N)c(=O)n(-c3ccccc3C(C)C)c3cc(-c4c(C)ccc5[nH]ncc45)c(Cl)cc23)[C@@H](C)C1` (single isomer, unassigned) [Compound I-2-2], the F ([1]; PO 3 mg/kg) was 18.9%, the AUC ([1]; mouse, plasma, IV 1 mg/kg) was 867 ng·h/mL and the Vd ([1]; mouse, plasma, IV 1 mg/kg) was 1.17 L/kg. For the same compound, the clearance ([1]; mouse, plasma, IV 1 mg/kg) was 16.7 mL/min/kg, the half-life ([1]; mouse, plasma, IV 1 mg/kg) was 43.1 min and the AUC ([1]; mouse, plasma, PO 3 mg/kg) was 479 ng·h/mL. The Cmax ([1]; mouse, plasma, PO 3 mg/kg) was 220 ng/mL, the Tmax ([1]; mouse, plasma, PO 3 mg/kg) was 60 min and the IC50 [2] was over 3000 nM. The “Weight Change Rate (%)” value [3, 4] was “+7.53%”, the “Weight on Day 23” value [3, 4] was 21.3 g and the “Weight Change Rate (%)” value [3, 5] was “+12.32%”. For the same compound, the “Weight on Day 23” value [3, 5] was 22.4 g, the “Weight at the Initiation of Administration” value [3, 4] was 19.8 g and the “Weight at the Initiation of Administration” value [3, 5] was 20.0 g.
